pIC50: −log10 of the molar value. Blank lines part the entries; values can stand above or below the molecule they belong to. The source made the active and inactive calls. The rule behind the calls is not given here.
Key:
A549 [1] = test: Ratio of TMPyP IC50 to compound IC50 for human A549 cells incubated for 24 hrs followed by exposure to visible-light for 10 mins measured after 24 hrs by WST assay; format: functional
A549 [2] = test: Phototoxicity against human A549 cells incubated for 24 hrs followed by exposure to visible-light for 10 mins measured after 24 hrs by WST assay; format: functional, cell-based
A549 [3] = test: Phototoxicity against human A549 cells incubated for 24 hrs followed by UV-irradiation for 10 mins measured after 24 hrs by WST assay; format: functional, cell-based
Escherichia coli [4] = test: Induction of Escherichia coli pBR322 DNA cleavage assessed as conversion of supercoiled form to nicked circular form at 50 uM incubated for 30 mins followed by exposure to visible-light for 1 to 60 mins by agarose gel electrophoretic analysis
Escherichia coli [5] = test: Induction of Escherichia coli pBR322 DNA cleavage assessed as conversion of supercoiled form to nicked circular form at 50 uM incubated for 30 mins followed by UV-irradiation for 1 to 60 mins by agarose gel electrophoretic analysis
DNA [6] = test: Binding affinity to calf thymus DNA; format: nucleic-acid assay; details: Bos taurus
DNA [7] = test: Binding affinity to calf thymus DNA assessed as blue shift at 2 uM by fluorescence spectroscopic analysis; format: nucleic-acid assay; details: Bos taurus
DNA [8] = test: Binding affinity to calf thymus DNA assessed as decrease in fluorescence intensity at 2 uM by spectroscopic analysis; format: nucleic-acid assay; details: Bos taurus
DNA [9] = test: Binding affinity to calf thymus DNA assessed as hypochromicity at 2 uM by UV-vis absorption titration relative to control; format: nucleic-acid assay; details: Bos taurus
DNA [10] = test: Binding affinity to calf thymus DNA assessed as red shift in Soret region at 2 uM by UV-vis absorption titration; format: nucleic-acid assay; details: Bos taurus
[11] = Homo sapiens, A549, light or radiation study

Structure (SMILES): C[n+]1ccc(-c2c3nc(c(-c4cc[n+](C)cc4)c4ccc([nH]4)c(-c4cc[n+](C)cc4)c4nc(c(-c5ccc(NC(=O)c6cnc7ccccc7n6)cc5)c5ccc2[nH]5)C=C4)C=C3)cc1.[I-].[I-].[I-]
Ratio IC50 (A549 [1]): 5 | pIC50 (A549 [2]; a549): 7.22 | pIC50 (A549 [3]; a549): 6.80 | Activity (Escherichia coli [4]): Active | Activity (Escherichia coli [5]): Active | K (DNA [6]): 1.26 ×10⁶ /M | Activity (DNA [7]): Active | Activity (DNA [8]): Active | Activity (DNA [9]): 39% | Activity (DNA [10]): Active

Structure (SMILES): O=C(Nc1ccc(-c2c3nc(c(-c4ccncc4)c4ccc([nH]4)c(-c4ccncc4)c4nc(c(-c5ccncc5)c5ccc2[nH]5)C=C4)C=C3)cc1)c1cnc2ccccc2n1
pIC50 (A549 [2]; [11]): 6.74 | pIC50 (A549 [3]; [11]): 6.77

Activity (Escherichia coli [4]): inactive | Activity (Escherichia coli [5]): Active | K (DNA [6]): 1.98 ×10⁵ /M
Structure (SMILES): O=C(Nc1ccc(-c2c3nc(c(-c4ccccc4)c4ccc([nH]4)c(-c4ccccc4)c4nc(c(-c5ccccc5)c5ccc2[nH]5)C=C4)C=C3)cc1)c1cnc2ccccc2n1
pIC50 (A549 [2]; [11]): < 4.70 | pIC50 (A549 [3]; [11]): < 4.70

Structure (SMILES): C1=Cc2nc1c(-c1ccccc1)c1nc(c(-c3ccccc3)c3ccc([nH]3)c(-c3ccccc3)c3ccc([nH]3)c2-c2ccccc2)C=C1 [TETRAPHENYLPORPHYRIN]
pIC50 (A549 [2]; [11]): < 4.70 | pIC50 (A549 [3]; [11]): < 4.70

Structure (SMILES): C[n+]1ccc(-c2c3nc(c(-c4cc[n+](C)cc4)c4ccc([nH]4)c(-c4cc[n+](C)cc4)c4ccc([nH]4)c(-c4cc[n+](C)cc4)c4nc2C=C4)C=C3)cc1 [TMPYP4]
pIC50 (A549 [2]; [11]): 6.52 | pIC50 (A549 [3]; [11]): 5.91 | K (DNA [6]): 2.5 ×10⁶ /M

— ChEMBL document CHEMBL2385066, “Cationic porphyrin-quinoxaline conjugate as a photochemically triggered novel cytotoxic agent” (Bioorg Med Chem Lett, 2013)
